{"source": "ChEMBL document CHEMBL3244322", "about": "“5-O-Alkylated derivatives of 5-hydroxy-2'-deoxyuridine as potential antiviral agents. Anti-herpes activity of 5-propynyloxy-2'-deoxyuridine” (J Med Chem, 1978)", "data": [{"tested_on": "Vaccinia virus", "experiment": "Antiviral activity against Vaccinia virus infected in primary rabbit kidney cells assessed as inhibition of virus-induced cytopathogenicity", "format": "functional", "settings": "Orthopoxvirus vaccinia", "units": {"MIC": "µM"}, "values": [{"smiles": "O=c1[nH]c(=O)n([C@H]2C[C@H](O)[C@@H](CO)O2)cc1I", "note": "[IDOXURIDINE]", "MIC": 1.4}, {"smiles": "C#CCOc1cn([C@H]2C[C@H](O)[C@@H](CO)O2)c(=O)[nH]c1=O", "MIC": 35}, {"smiles": "NC(=O)COc1cn([C@@H]2O[C@H](CO)[C@@H](O)[C@H]2O)c(=O)[nH]c1=O", "MIC": "> 600"}, {"smiles": "O=c1[nH]c(=O)n([C@H]2C[C@H](O)[C@@H](CO)O2)cc1OCc1ccccc1", "MIC": "> 300"}, {"smiles": "NC(=O)COc1cn([C@H]2C[C@H](O)[C@@H](CO)O2)c(=O)[nH]c1=O", "MIC": 130}, {"smiles": "O=c1[nH]c(=O)n([C@@H]2O[C@H](CO)[C@@H](O)[C@H]2O)cc1OCc1ccc([N+](=O)[O-])cc1", "MIC": "> 600"}, {"smiles": "Nc1ncnc2c1ncn2[C@@H]1O[C@H](CO)[C@@H](O)[C@@H]1O", "note": "[VIDARABINE]", "MIC": 1.4}, {"smiles": "C=CCOc1cn([C@@H]2O[C@H](CO)[C@@H](O)[C@H]2O)c(=O)[nH]c1=O", "MIC": "> 600"}, {"smiles": "Cc1ccc(COc2cn([C@@H]3O[C@H](CO)[C@@H](O)[C@H]3O)c(=O)[nH]c2=O)cc1", "MIC": "> 600"}, {"smiles": "C=CCOc1cn([C@H]2C[C@H](O)[C@@H](CO)O2)c(=O)[nH]c1=O", "MIC": 70}, {"smiles": "O=c1[nH]c(=O)n([C@H]2C[C@H](O)[C@@H](CO)O2)cc1OCc1ccc([N+](=O)[O-])cc1", "MIC": "> 260"}, {"smiles": "O=c1[nH]c(=O)n([C@@H]2O[C@H](CO)[C@@H](O)[C@H]2O)cc1OCc1ccccc1", "MIC": "> 600"}, {"smiles": "O=c1[nH]c(=O)n([C@H]2C[C@H](O)[C@@H](CO)O2)cc1O", "MIC": 14}, {"smiles": "O=C(O)COc1cn([C@H]2C[C@H](O)[C@@H](CO)O2)c(=O)[nH]c1=O", "MIC": "> 600"}]}]}
